Data published in patent US7507739B2, “6-[(substituted)phenyl]triazolopyrimidines as anticancer agents” (Wyeth, priority 2003, dated 2009).
Marks after values point to notes of the source that are not given here.

How the values were obtained:
[1] = Water uptake and hydrate stability at relative humidity; format: physicochemical; conditions: room temperature; for water absorbed: 80-100% relative humidity, about 24 h, forms dihydrate; for stability of dihydrate: 5-100% relative humidity
Method: To a slurry of 5-chloro-6-{2,6-difluoro-4-[3-(methylamino)propoxy]phenyl}-N-[(1S)-2,2,2-trifluoro-1-methylethyl][1,2,4]triazolo[1,5-a]pyrimidin-7-amine hydrochloride (7.50 g, 15.0 mmol) and water (100 mL) is added sodium hydroxide solution (10 N, 2.0 mL, 20 mmol) dropwise. Then, fumaric acid (3.48 g, 30 mmol) is added. The mixture is stirred for about 15-20 min and then heated to about 65-75° C. and stirred until all of the solid dissolves. The solution is filtered and the filtrate is cooled to about 0-5° C. over about 1 h. The mixture is stirred for 1 h and then filtered and the collected solid washed with cold water and isopropanol. The solid is dried under vacuum at about 60° C./10 mmHg for about 20 h to give a white solid (6.54 g, 75%) in anhydrous form. A portion of the compound is placed in a drying dish at 80-100% relative humidity (RH) and room temperature for about 24 h.
A mixture of 5-chloro-6-{2,6-difluoro-4-[3-(methylamino)propoxy]phenyl}-N-[(1S)-2,2,2-trifluoro-1-methylethyl][1,2,4]triazolo[1,5-a]pyrimidin-7-amine (9.00 g, 19.4 mmol) and succinic acid (2.75 g, 23.3 mmol) in water (90 mL) is stirred for about 15-20 min and then heated to about 65-75° C. The solution is filtered and the filtrate is cooled to about 0-5° C. over about 1 h. The mixture is stirred for about 1 h and then filtered and the collected solid washed with cold water (2×9 mL) and cold isopropanol (9 mL). The solid is dried under vacuum at about 40° C./10 mmHg for about 20 h to give a white solid in anhydrous form (6.6 g, 73%). A portion of the compound is placed in a drying dish at 80-100% relative humidity (RH) and room temperature for about 24 h.

COLO 205 cells = test: MTS cytotoxicity test with COLO 205 cells; format: cell-based, human; conditions: 3 days, Succinate Salt
Procedure, shortened: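 COLO 205 human colon carcinoma cells, 1000 per well, exposed 3 days at 37° C to nine 2-fold dilutions, typical final top concentration 5 μM. MTS absorbance normalized to time-0 plate; IC50 is concentration giving colour yield midway between untreated and fully killed controls.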

[2] = system: H157 Human Non-Small Cell Lung Carcinoma; test: Human tumor xenograft test, H157; format: in vivo, athymic mice; conditions: for T/C on day 0 / T/C on day 2 / T/C on day 5 / T/C on day 8 / T/C on day 12 / T/C on day 15: days 0, 7
Method: The ability of compounds of this invention to inhibit tumor growth in animals is studied in the athymic mouse xenograft standard pharmacological test. Female nu/nu mice in an outbred albino background are obtained from Charles River Laboratories (Wilmington, Mass.). Animals are injected subcutaneously on the flank with the desired tumor cell suspension. Several days later, mice with tumors of approximately 150 mm^3 are selected from those injected (staged) and randomly distributed into groups of 5-10. The day of staging is called day 0. Compounds of the invention, usually formulated in saline (exceptions are noted in tables), are administered to animals by intravenous injection or oral gavage on various schedules starting on day 0 or 1, as noted in the tables. The control group in each experiment is dosed with vehicle on the same schedule. Tumor size is measured every 3-7 days with calipers in two orthogonal dimensions, and tumor volume is calculated from the formula volume=[(length×width^2)/2].
Tumor/Control (T/C) is obtained by dividing the mean tumor volume of the treated group by the mean tumor volume of the control group on each measurement day. A treatment dose is defined as active if it produced a statistically significant T/C of 0.50 or less. A p value≦0.05, determined by one-side Student's t-test, is required for statistical significance. A treatment dose is defined as toxic if more than 10% of the animals died from a compound-related toxicity.

Row | Compound | water absorbed [1] [%] | stability of dihydrate [1] | IC50 (COLO 205 cells) [µM] | T/C on day 0 ([2]; H157, 10 mg/kg IV) | T/C on day 2 ([2]; H157, 10 mg/kg IV) | T/C on day 5 ([2]; H157, 10 mg/kg IV) | T/C on day 8 ([2]; H157, 10 mg/kg IV) | T/C on day 12 ([2]; H157, 10 mg/kg IV) | T/C on day 15 ([2]; H157, 10 mg/kg IV) | T/C on day 0 ([2]; H157, 20 mg/kg IV) | T/C on day 2 ([2]; H157, 20 mg/kg IV) | T/C on day 5 ([2]; H157, 20 mg/kg IV) | T/C on day 8 ([2]; H157, 20 mg/kg IV) | T/C on day 12 ([2]; H157, 20 mg/kg IV) | T/C on day 15 ([2]; H157, 20 mg/kg IV) | tumor growth inhibition (activity call) ([2]; H157 NSCLC, 20 and 10 mg/kg intravenously on days 0 and 7)
1 | CNCCCOc1cc(F)c(-c2c(Cl)nc3ncnn3c2N[C@@H](C)C(F)(F)F)c(F)c1.O=C(O)/C=C/C(=O)O [Example 2b, 5-Chloro-6-{2,6-difluoro-4-[3-(methylamino)propoxy]phenyl}-N-[(1S)-2,2,2-trifluoro-1-methylethyl][1,2,4]triazolo[1,5-a]pyrimidin-7-amine Fumarate Salt] | 5.8 | stable at room temperature and at 5-100% relative humidity | – | – | – | – | – | – | – | – | – | – | – | – | – | –
2 | CNCCCOc1cc(F)c(-c2c(Cl)nc3ncnn3c2N[C@@H](C)C(F)(F)F)c(F)c1.O=C(O)CCC(=O)O [Example 2c, 5-Chloro-6-{2,6-difluoro-4-[3-(methylamino)propoxy]phenyl}-N-[(1S)-2,2,2-trifluoro-1-methylethyl][1,2,4]triazolo[1,5-a]pyrimidin-7-amine Succinate Salt] | 5.8 | stable at room temperature and at 5-100% relative humidity | 0.038 | 1.07 | 1.09 | 1.00 | 0.96 | 0.49* | 0.38* | 0.98 | 0.96 | 0.50** | 0.51* | 0.44* | 0.24** | active
